Like-named read-outs stand apart in the source and are kept apart here.
Key:
[1] = tested on: all cancer cell lines (A2780, A2780cis, G361, A549, HeLa, LNCaP, THP-1); assay: Antiproliferative effect of starting compounds on all cancer cell lines; settings: 24 h, read-out: IC50, in vitro cytotoxicity of starting compounds on all cancer cell lines
[2] = tested on: G361 malignant melanoma cells; assay: In vitro cytotoxicity, MTT assay, G361; type: cell-based, human; settings: 24 h, read-out: IC50 ± SD, G361
Experimental: (§1) Figure S3. […] The cells were plated at 96-well dishes and cultured according manufacturer instructions. The tested compounds were applied to the cells for 24 h in concentrations ranging from 0.01 to 50 µM. The tested compounds were applied to the cells for 24 h. The cytotoxicity was assessed by the MTT test, measurements were performed in triplicate, and each cytotoxicity experiment was repeated three times. The data are expressed as IC50 ± SD (μM).

[3] = tested on: TNF-α secretion, LPS-stimulated THP-1 cells; assay: LPS-induced TNF-α secretion in THP-1 macrophages (ELISA); type: cell-based, human; settings: 0.2 μM; for TNF-α secretion: 1 h pre-treatment, then LPS 24 h; for increase of TNF-α secretion, factor in comparison to vehicle: LPS-activated macrophages, 24 h
Experimental: (§2) To determine the influence of the tested complexes on the TNF-α and IL-1β secretions, the human monocytic leukemia cell line THP-1 was used. The cells were cultivated at 37°C in the RPMI 1640 medium supplemented with 2 mM L-glutamine, 10% fetal bovine serum (FBS), 100 U/mL of penicillin and 100 μg/mL of streptomycin in a humidified atmosphere containing 5% CO2. The stabilized cells (3rd–20th passage) were split into microtitration plates to get a concentration of 100 000 cells/mL and the differentiation to macrophages was induced by a phorbol myristate acetate (PMA) as we described previously.
(§3) Differentiated macrophages were pretreated for 1 h with 0.2 μM solutions of the tested complexes, prednisone or CuSO4 · 5 H2O dissolved in DMSO (the final DMSO concentration was 0.1%) and with 0.1% DMSO solution itself (the experimental group called vehicle); the given concentrations of the tested compounds lack the cytotoxic effect. The inflammatory response was triggered by adding 1.0 μg/mL lipopolysaccharide (LPS) dissolved in water to pretreated macrophages, control cells were without the LPS treatment. Each experiment was repeated three-times.
(§4) Macrophages pretreated with the tested compounds for 1 h were incubated with LPS for next 24 h. After this period, the medium was collected and the concentration of TNF-α and IL-1β was measured by Instant ELISA kit (eBioscience, Vienna, Austria) according to the manufacturer’s manual.

[4] = tested on: A549 lung carcinoma cells; assay: In vitro cytotoxicity, MTT assay, A549; type: cell-based, human; settings: 24 h, read-out: IC50 ± SD, A549
Experimental: as §1, with “S1.” for “S3.”

[5] = tested on: THP-1 monocytic leukemia cells; assay: In vitro cytotoxicity, WST-1 test, THP-1; type: cell-based, human; settings: 24 h, WST-1, serum-free medium; read-out: IC50 ± SD, THP-1
Experimental: as §1, with “S7.” for “S3.”

[6] = tested on: primary human hepatocytes (HH1); assay: Toxicity to primary human hepatocytes; type: cell-based; settings: 24 h, MTT; read-out: IC50 ± SD, HH1 (toxicity to primary human hepatocytes)
[7] = tested on: A2780 ovarian carcinoma cells; assay: In vitro cytotoxicity, MTT assay, A2780; type: cell-based, human; settings: 24 h, read-out: IC50 ± SD, A2780
Experimental: as §1, with “S4.” for “S3.”

[8] = tested on: LNCaP androgen-sensitive prostate adenocarcinoma cells; assay: In vitro cytotoxicity, MTT assay, LNCaP; type: cell-based, human; settings: 24 h, read-out: IC50 ± SD, LNCaP
Experimental: as §1, with “S6.” for “S3.”

[9] = tested on: A2780cis cisplatin-resistant ovarian carcinoma cells; assay: In vitro cytotoxicity, MTT assay, A2780cis; type: cell-based, human; settings: for IC50: 24 h, MTT, read-out: IC50 ± SD, A2780cis; for IC50(A2780cis)/IC50(A2780) ratio (resistance factor): in comparison with cisplatin
Experimental: as §1, with “S5.” for “S3.”

[10] = tested on: HeLa cervix epitheloid carcinoma cells; assay: In vitro cytotoxicity, MTT assay, HeLa; type: cell-based, human; settings: 24 h, read-out: IC50 ± SD, HeLa
Experimental: as §1, with “S2.” for “S3.”

[11] = tested on: IL-1β secretion, LPS-stimulated THP-1 cells; assay: LPS-induced IL-1β secretion in THP-1 macrophages (ELISA); type: cell-based, human; settings: 0.2 μM; for IL-1β secretion: 1 h pre-treatment, then LPS 24 h; for increase of IL-1β secretion, factor: LPS-activated cells, 24 h
Experimental: as §2, §3, §4

[12] = tested on: aryl hydrocarbon receptor (AhR) transcriptional activity; assay: AhR gene reporter assay in AZ-AhR cells; type: cell-based, human; settings: 24 h; complexes 10 nM – 5 μM; TCDD 10 pM – 10 μM
[13] = tested on: glucocorticoid receptor (GR) transcriptional activity; settings: 24 h; complexes 10 nM – 5 μM; DEX 10 pM – 100 nM
[14] = tested on: THP-1 monocytic leukemia cells; design: method as in PMID 15139770; settings: cited from earlier work

SMILES | IC50 [2] | increase of TNF-α secretion, factor in comparison to vehicle [3] | IC50 [4] | IC50 [5] | IC50 [6] | IC50 [7] | IC50 [8] | IC50 [9] | IC50 [10] | increase of IL-1β secretion, factor [11] | other results
O=c1c(O)c(-c2ccccc2)[nH]c2ccccc12 [Hqui, 2-phenyl-3-hydroxy-4(1H)-quinolinone] |  |  |  |  |  |  |  |  |  |  | IC50 ([1]; Homo sapiens): > 50 µM
F[B-](F)(F)F.O=c1c([O-])c(-c2ccccc2)[nH]c2ccccc12.[Cu+2].c1ccc(-c2ccnc3c2ccc2c(-c4ccccc4)ccnc23)cc1 [compound 6, [Cu(qui)(bphen)]BF4] | 0.72 ± 0.06 µM | 2 | 1.3 ± 0.4 µM | 0.56 ± 0.1 µM | 5.3 ± 0.3 µM | 0.57 ± 0.11 µM | 0.62 ± 0.08 µM | 0.7 ± 0.2 µM | 1.3 ± 0.4 µM | 6.4 | TNF-α secretion [3]: 3284 ± 139 pg/mL; IC50(A2780cis)/IC50(A2780) ratio (resistance factor) [9]: practically two times lower; IL-1β secretion [11]: 1087 ± 101 pg/mL
F[B-](F)(F)F.F[B-](F)(F)F.[Cu+2] [Cu(BF4)2 · H2O] |  |  |  |  |  |  |  |  |  |  | IC50 [1]: > 50 µM
Cc1cc2cccnc2c2ncccc12.F[B-](F)(F)F.O.O=c1c([O-])c(-c2ccccc2)[nH]c2ccccc12.[Cu+2] [compound 4, [Cu(qui)(mphen)]BF4 · H2O] | 0.53 ± 0.09 µM | 1.6 | 2.5 ± 0.6 µM | 1.1 ± 0.4 µM | 9.3 ± 0.6 µM | 0.36 ± 0.05 µM | 1.5 ± 0.6 µM | 0.56 ± 0.15 µM | 2.4 ± 1 µM | 1.6 | 
Clc1cc2c(cc1Cl)Oc1cc(Cl)c(Cl)cc1O2 [TCDD, 2,3,7,8-tetrachlorodibenzo-p-dioxin] |  |  |  |  |  |  |  |  |  |  | luciferase activity in AZ-AhR cells [12]: strongly, dose-dependently induced
Cc1cc2cccnc2c2ncccc12 [mphen, 5-methyl-1,10-phenanthroline] |  |  |  |  |  |  |  |  |  |  | IC50 ([1]; Homo sapiens): > 50 µM
C[C@@H]1C[C@H]2[C@@H]3CCC4=CC(=O)C=C[C@]4(C)[C@@]3(F)[C@@H](O)C[C@]2(C)[C@@]1(O)C(=O)CO [DEX, dexamethasone] |  |  |  |  |  |  |  |  |  |  | luciferase activity in AZ-GR cells [13]: strongly, dose-dependently induced
F[B-](F)(F)F.O=c1c([O-])c(-c2ccccc2)[nH]c2ccccc12.[Cu+2].c1cnc2c(c1)ccc1cccnc12 [compound 2, [Cu(qui)(phen)]BF4] | 0.64 ± 0.2 µM | ~ 1.25 | 3.9 ± 1.2 µM | 1.7 ± 0.2 µM | 20.4 ± 1.2 µM | 0.52 ± 0.1 µM | 1.9 ± 0.6 µM | 1.7 ± 0.6 µM | 2.7 ± 0.6 µM | practically no influence | 
N.N.[Cl][Pt][Cl] [cisplatin, reference compound] | 3.4 ± 0.1 µM |  | 25.8 ± 7.1 µM |  |  | 12 ± 0.8 µM | 3.8 ± 1.5 µM | 27 ± 4.6 µM | 10 ± 2.6 µM |  | IC50 [14]: 2 µM
O.O.O.O.O.O=S(=O)([O-])[O-].[Cu+2] [CuSO4·5H2O, reference compound] |  | 1.4 |  |  |  |  |  |  |  | ~1.6 | 
c1ccc(-c2ccnc3c2ccc2c(-c4ccccc4)ccnc23)cc1 [bphen, bathophenanthroline] |  |  |  |  |  |  |  |  |  |  | IC50 [1]: > 50 µM
C[C@]12C=CC(=O)C=C1CC[C@@H]1[C@@H]2C(=O)C[C@@]2(C)[C@H]1CC[C@]2(O)C(=O)CO [prednisone, reference compound] |  |  |  |  |  |  |  |  |  |  | TNF-α secretion [3]: 1173 ± 85 pg/mL; IL-1β secretion [11]: 118.5 ± 4.8 pg/mL
O.O=[N+]([O-])[O-].O=c1c([O-])c(-c2ccccc2)[nH]c2ccccc12.[Cu+2].c1ccc(-c2ccnc3c2ccc2c(-c4ccccc4)ccnc23)cc1 [compound 5, [Cu(qui)(bphen)]NO3 · H2O] | 0.96 ± 0.03 µM | 1.8 | 1.7 ± 0.3 µM | 0.57 ± 0.08 µM | 3.6 ± 0.2 µM | 0.66 ± 0.07 µM | 0.74 ± 0.21 µM | 0.73 ± 0.08 µM | 1 ± 0.2 µM | 6.9 | TNF-α secretion [3]: 2873 ± 238 pg/mL; IC50(A2780cis)/IC50(A2780) ratio (resistance factor) [9]: practically two times lower; IL-1β secretion [11]: 1177 ± 128 pg/mL
c1cnc2c(c1)ccc1cccnc12 [phen, 1,10-phenanthroline] |  |  |  |  |  |  |  |  |  |  | IC50 ([1]; Homo sapiens): > 50 µM
Cc1cc2cccnc2c2ncccc12.O.O=[N+]([O-])[O-].O=c1c([O-])c(-c2ccccc2)[nH]c2ccccc12.[Cu+2] [compound 3, [Cu(qui)(mphen)]NO3 · H2O] | 0.53 ± 0.22 µM | ~ 1.25 | 2.5 ± 0.6 µM | 1.5 ± 0.3 µM | > 10 µM | 0.38 ± 0.03 µM | 2.1 ± 0.6 µM | 0.78 ± 0.07 µM | 2.6 ± 0.4 µM | practically no influence | 
O.O=[N+]([O-])[O-].O=c1c([O-])c(-c2ccccc2)[nH]c2ccccc12.[Cu+2].c1cnc2c(c1)ccc1cccnc12 [compound 1, [Cu(qui)(phen)]NO3 · H2O] | 0.82 ± 0.15 µM | ~ 1.25 | 2.5 ± 0.4 µM | 2 ± 0.1 µM | > 10 µM | 0.65 ± 0.28 µM | 2.4 ± 0.6 µM | 0.83 ± 0.3 µM | 2.9 ± 0.3 µM | practically no influence | 
O=[N+]([O-])[O-].O=[N+]([O-])[O-].[Cu+2] [Cu(NO3)2 · 3H2O] |  |  |  |  |  |  |  |  |  |  | IC50 [1]: > 50 µM

Source: article PMC3556092, “Cellular responses induced by Cu(II) quinolinonato complexes in human tumor and hepatic cells” (Chemistry Central Journal, 2012)
